From patent US12134607B2, “Crystals of tetrahydronaphthyl urea derivative” (MOCHIDA PHARMACEUTICAL CO., LTD., priority 2017, dated 2024)
≈ marks a conversion by molar mass, not a printed value. Read-outs that look alike come from different tables or passages of the source.

Legend:
[1] = Determination of equilibrium solubility in phosphate buffer solution with pH 6.8; assay type: physicochemical; conditions: pH 6.8 phosphate buffer, mean value of three measurements
Excerpt: (Test Example 1) Determination of Equilibrium Solubility (Determination of Solubility in Phosphate Buffer Solution with pH 6.8)
Each of the equilibrium solubilities (solubility in phosphate buffer solution with pH 6.8) of Type I (Example 2), III (Example 3), V (Example 4) and VI crystals (Example 5) of 1-((1R,2R)-2-hydroxy-4,4-dimethyl-1,2,3,4-tetrahydronaphthalen-1-yl)-3-(5-methyl-6-(2-methylpyrimidin-5-yl)-2-phenylpyridin-3-yl)urea obtained in the above (Example 2) to (Example 5) was determined as follows:
Water was added a weighed potassium dihydrogen phosphate of 2.7 g to make 100 mL volume to prepare 0.2 mol/L potassium dihydrogen phosphate solution. Water was added a weighed disodium hydrogen phosphate […] of 7.2 g to make 100 mL volume to prepare 0.2 mol/L disodium hydrogen phosphate solution. A pH 6.8 phosphate buffer solution was prepared by diluting a mixture of 0.2 mol/L potassium dihydrogen phosphate solution (14.8 mL) and 0.2 mol/L disodium hydrogen phosphate solution (10.0 mL) with water (173.6 mL).
Approximately 1 mg of the each crystal from (Example 2) to (Example 5) was weighed into a screw tube, and a pH 6.8 phosphate buffer solution (1 mL) was added. An isothermal shaker (M-BR-022UP) was used to incubate the sample at 37° C. and 1000 rpm for 24 hours. 100 μL solution were sampled at 1, 2, 6, and 24 hours after the start of incubation, and were filtered using a centrifuge (HITACHI, Himac cF 9RX, at 25° C., at 1500 rpm, for 30 seconds) with a filter (Millipore: Multiscreen, MSSLBPC10) so as to remove insoluble materials. A 20 μL of the filtrate was quantified, and diluted with a solution (180 μL, pH 9.0) of 20 vol % tetrahydrofuran and 80 vol % ammonium bicarbonate aqueous solution (10 mM). A 10 μL of the prepared solution was quantified, and diluted with a solution (190 μL, pH 9.0) of 20 vol % tetrahydrofuran and 80 vol % ammonium bicarbonate aqueous solution (10 mM). The prepared solution was analyzed by ultra performance liquid chromatography (UPLC) under the following measurement conditions, and the concentration of the compound in the solution was calculated based on a previously prepared calibration curve. Three times of measurements were made for each example compound, and the mean values and standard deviations of the three measurements are shown as a result in Table 6.
<UPLC measurement conditions> Equipment: ACQUITY UPLC H-Class (Waters) Detector: PDA (200-500 nm) Column: BEH C18 2.1×50 mm Measurement wavelength: 270 nm Column temperature: 40° C. Injection amount: 10 μL Mobile phase: • Solvent A, acetonitrile; • Solvent B, 10 mM ammonium bicarbonate aqueous solution (pH 9.0) Gradient conditions: […]

[2] = Pharmacokinetic study, single oral dose in rats; assay type: in vivo; conditions: male Crl:CD (SD) rats, oral single dose 600 mg/kg in 0.5 w/v % methylcellulose 400
Method: (Pharmacology Experiment 5): Pharmacokinetic Study
Plasma sample obtained by centrifugation of blood (12000×g, for 5 minutes, at 4° C.) was measured to determine plasma concentration of the test compound using high performance liquid chromatography/mass spectrometry. Similarly, concentrations of standard solutions containing the test compound at known concentrations (0.001, 0.002, 0.005, 0.01, 0.02, 0.05, 0.1, 0.2, 0.5, 1, 2, and 5 μg/mL) were measured. And then, the plasma concentration (μg/mL) of the compound (1) was calculated from the prepared calibration curve to obtain the maximum plasma concentration (Cmax (μg/mL)) and the area under the plasma concentration-time curve (AUC (μg·hr/mL)). Measurement conditions can be appropriately adjusted by a person skilled in the art.

Storage stability test = assay type: physicochemical
Method: For the stability test, approximately 20 mg of the test sample was stored at 25° C./60% RH or at 40° C./75% RH in open or closed condition for 1 month using a small environmental tester SH-641 (manufactured by Espec), and changes in purity and in crystalline form were observed.
For purity measurement, equipment of Waters ACQUITY UPLC H-Class (manufactured by Waters) and column of Waters ACQUITY BEH C18 (particle diameter […], size 2.1×50 mm) are used. For the mobile phase, 10 mmol/L ammonium bicarbonate buffer pH 9.0 and acetonitrile were used; and the test sample solution at 100 μg/mL in the mixture solvent of THF (tetrahydrofuran):10 mmol/L ammonium bicarbonate buffer (20:80) was prepared.
(Test Example 2) Storage Stability Test
The type I (Example 2), III (Example 3), V (Example 4) and VI (Example 5) crystals (each about 20 mg) of 1-((1R,2R)-2-hydroxy-4,4-dimethyl-1,2,3,4-tetrahydronaphthalen-1-yl)-3-(5-methyl-6-(2-methylpyrimidin-5-yl)-2-phenylpyridin-3-yl)urea obtained in the above Examples 2 to 5 were stored in glass bottles under the respective conditions described in Table 7. After completion of the storage period, the retrieved sample was confirmed on the purity by high performance liquid chromatography and on the crystal form by powder X-ray diffraction analysis as in the Examples.

[3] = Photostability test according to ICH Q1B; assay type: physicochemical
Method: (Test Example 3) Photostability Test
The type I (Example 2), III (Example 3), V (Example 4), and VI (Example 5) crystals (each about 20 mg) of 1-((1R,2R)-2-hydroxy-4,4-dimethyl-1,2,3,4-tetrahydronaphthalen-1-yl)-3-(5-methyl-6-(2-methylpyrimidin-5-yl)-2-phenylpyridin-3-yl)urea obtained in the above Examples 2 to 5 were placed in a transparent plastic container and covered, and were subjected to photostability test according to the ICH Q1B (Guidelines on Photostability Testing of New Active Substances and Medicinal Products) described in Table 8 (Here, the photostability test samples were stored at about 25° C. under separate lamps which respectively emits visible light and UV-A light so that the total light exposure should be 1.2 million lux hours and 200 W hours/m^2 or more, respectively. A 5-day study should be designated as “0.5 ICH” and a 10-day study as “1 ICH”). […] After completion of the test, the retrieved sample was confirmed on the purity by high performance liquid chromatography and on the crystal form by powder X-ray diffraction analysis as in the Examples.

[4] = 25° C./60% RH, closed for 1 month
[5] = 25° C./60% RH, open for 1 month
[6] = 40° C./75% RH, closed for 1 month
[7] = 40° C./75% RH, open for 1 month
[8] = Shielded from light by aluminum foil, 0.5 ICH
[9] = Shielded from light by aluminum foil, 1 ICH
[10] = Shielded from light by aluminum foil, Before the test

SMILES: Cc1ncc(-c2nc(-c3ccccc3)c(NC(=O)N[C@@H]3c4ccccc4C(C)(C)C[C@H]3O)cc2C)cn1 [Example 4, 1-((1R,2R)-2-hydroxy-4,4-dimethyl-1,2,3,4-tetrahydronaphthalen-1-yl)-3-(5-methyl-6-(2-methylpyrimidin-5-yl)-2-phenylpyridin-3-yl)urea]
- Solubility ([1]; 37° C.): 60.1 µg/mL (≈ 122 µM)
- Area Under Plasma Concentration (AUC) [2]: 473 µg·h/mL
- Maximum Plasma Concentration (Cmax) [2]: 26900 ng/mL
- Chemical purity (%) (Storage stability test; [4]): 99.8%
- Crystalline form after completion of storage period (Storage stability test; [4]): Type V crystal
- Chemical purity (%) (Storage stability test; [5]): 99.8%
- Crystalline form after completion of storage period (Storage stability test; [5]): Type V crystal
- Chemical purity (%) (Storage stability test; [6]): 99.8%
- Crystalline form after completion of storage period (Storage stability test; [6]): Type V crystal
- Chemical purity (%) (Storage stability test; [7]): 99.8%
- Crystalline form after completion of storage period (Storage stability test; [7]): Type V crystal
- Chemical purity (%) (Storage stability test; Before the test): 99.8%
- Crystalline form after completion of storage period (Storage stability test; Before the test): Type V crystal
- Moisture absorption (Storage stability test; during the storage period): no moisture absorption was observed
- Chemical and physical stability over the test period (Storage stability test; storage for 1 month, result in words): chemically and physically stable
- Chemical purity (%) ([3]; Exposure, 0.5 ICH (5-day)): 99.8%
- Crystalline form after completion of storage period ([3]; Exposure, 0.5 ICH (5-day)): Type V crystal
- Chemical purity (%) ([3]; Exposure, 1 ICH (10-day)): 99.8%
- Crystalline form after completion of storage period ([3]; Exposure, 1 ICH (10-day)): Type V crystal
- Chemical purity (%) ([3]; Exposure, Before the test): 99.9%
- Crystalline form after completion of storage period ([3]; Exposure, Before the test): Type V crystal
- Chemical purity (%) [3, 8]: 99.9%
- Crystalline form after completion of storage period [3, 8]: Type V crystal
- Chemical purity (%) [3, 9]: 99.9%
- Crystalline form after completion of storage period [3, 9]: Type V crystal
- Chemical purity (%) [3, 10]: 99.9%
- Crystalline form after completion of storage period [3, 10]: Type V crystal
- Stability against light ([3]; result in words, listed as type V crystal): stable against light

SMILES: Cc1ncc(-c2nc(-c3ccccc3)c(NC(=O)N[C@@H]3c4ccccc4C(C)(C)C[C@H]3O)cc2C)cn1 [Example 5, 1-((1R,2R)-2-hydroxy-4,4-dimethyl-1,2,3,4-tetrahydronaphthalen-1-yl)-3-(5-methyl-6-(2-methylpyrimidin-5-yl)-2-phenylpyridin-3-yl)urea]
- Solubility ([1]; phosphate buffer solution pH 6.8, 37 °C, pH 6.8, aqueous buffer, thermodynamic from solid, read-out: Solubility): 41.1 µg/mL (≈ 83.3 µM)
- Chemical purity (%) (Storage stability test; [4]): 99.9%
- Crystalline form after completion of storage period (Storage stability test; [4]): Type VI crystal
- Chemical purity (%) (Storage stability test; [5]): 99.9%
- Crystalline form after completion of storage period (Storage stability test; [5]): Type VI crystal
- Chemical purity (%) (Storage stability test; [6]): 99.9%
- Crystalline form after completion of storage period (Storage stability test; [6]): Type VI crystal
- Chemical purity (%) (Storage stability test; [7]): 99.9%
- Crystalline form after completion of storage period (Storage stability test; [7]): Type VI crystal
- Chemical purity (%) (Storage stability test; Before the test): 99.8%
- Crystalline form after completion of storage period (Storage stability test; Before the test): Type VI crystal
- Crystal form change during storage (Storage stability test; storage (open system)): transferred to the type I crystal
- Chemical purity (%) ([3]; Exposure, 0.5 ICH (5-day)): 99.7%
- Crystalline form after completion of storage period ([3]; Exposure, 0.5 ICH (5-day)): Type I crystal
- Chemical purity (%) ([3]; Exposure, 1 ICH (10-day)): 99.5%
- Crystalline form after completion of storage period ([3]; Exposure, 1 ICH (10-day)): Type I crystal
- Chemical purity (%) ([3]; Exposure, Before the test): 99.8%
- Crystalline form after completion of storage period ([3]; Exposure, Before the test): Type I crystal
- Chemical purity (%) [3, 8]: 99.8%
- Crystalline form after completion of storage period [3, 8]: Type I crystal
- Chemical purity (%) [3, 9]: 99.8%
- Crystalline form after completion of storage period [3, 9]: Type I crystal
- Chemical purity (%) [3, 10]: 99.8%
- Crystalline form after completion of storage period [3, 10]: Type VI crystal
- Crystal form change during photostability tests ([3]; result in words): transferred to the type I crystal
- Stability against light ([3]; result in words, listed as type VI crystal): unstable against light
